Experiments:
[1] = tested on: D-aminoacylase (crude enzyme) of Menisporopsis novaezelandiae IFO 9179; assay: Crude enzyme activity for each N-Ac-D-amino acid substrate; assay type: biochemical; details: Menisporopsis novaezelandiae IFO 9179 crude enzyme; 20 mM substrate, 1 mM CoCl2, 50 mM phosphate buffer pH 7.0
Experimental: (§1) Auricularia auriculajudae IFO 5949, Pythium aphanidermaatum IFO 7030, and Menisporopsis novaezelandiae IFO 9179 were each inoculated into sterilized media (100 ml each) (Czapek Dox Broth for IFO 5949, YM1 medium for IFO 7030, and POTATO DEXTROSE BROTH for IFO 9179) in 500-ml Erlenmeyer flasks. The fungi were cultured on a rotary shaker at 210 rpm at 24° C. for 7 days and collected by centrifugation using a […] centrifuge with a RPR10-2 rotor at 8,000 rpm (12,500×g) for 20 min. […] Disrupted cells thus obtained were centrifuged using a […] centrifuge with a RPR20-2 rotor at 17,500 rpm (38,000×g) for 30 min at 4° C. to obtain the supernatant as the crude enzyme. […] Figures in the table denote the amount (mM) of D-amino acids produced from the corresponding N-acetyl-D-amino acids. The D-aminoacylase activity was detected in all the strains tested, producing D-amino acid from the corresponding N-acetyl-D-amino acid.

[2] = tested on: D-aminoacylase (crude enzyme) of Pythium aphanidermaatum IFO 7030; assay: as above; assay type: biochemical; details: Pythium aphanidermaatum IFO 7030 crude enzyme; 20 mM substrate, 1 mM CoCl2, 50 mM phosphate buffer pH 7.0
Experimental: as §1

[3] = tested on: D-aminoacylase (crude enzyme) of Auricularia auriculajudae IFO 5949; assay: as above; assay type: biochemical; details: Auricularia auriculajudae IFO 5949 crude enzyme; 20 mM substrate, 1 mM CoCl2, 50 mM phosphate buffer pH 7.0
Experimental: as §1

Fusarium solani IFO 9974 = assay: D-amino acid production from N-acetyl-D-amino acid by washed fungal cells; assay type: cell-based; details: Fusarium solani IFO 9974 cells; 0.1% substrate, Tris-HCl pH 7.5, 30° C., 24 hours
Experimental: (§2) A platinum loopful of Hypomyces aurantius IFO 6847 strain, Hypomyces broomeanus IFO 9164 strain, Hypomyces rosellus IFO 6911 strain, Hypomyces chrysospermus IFO 6817 strain, Hypomyces sepulcralis IFO 9102 strain, Hypomyces subiculosus IFO 6892 strain, Hypomyces mycophilus ATCC 76474 or IFO 6785 strain, or Fusarium solani IFO 9974 or IFO 9975 strain was inoculated into 25 ml of YM medium (containing 0.3% yeast extract, 0.3% malt extract, 0.5% peptone, and 2.0% glucose, pH 6.0) in a 500-ml shouldered flask. The fungi were shake-cultured at 24° C. for 3 days. After culturing, a 5-ml aliquot of the culture medium was centrifuged in a refrigerated centrifuge to collect the fungal cells. The cells were washed with physiological saline solution (5 ml) and collected by centrifugation again. A reaction solution (containing 0.1% N-acetyl-D-amino acid shown in Table 1 below in Tris-HCl buffer, pH 7.5) was then added to the cells thus collected. The mixture was incubated in a 5-ml test tube with shaking at 30° C. for 24 hours.
(§3) D-Amino acid thus produced was determined by high-performance liquid chromatography (column, CROWNPAK CR (Daicel Chemical); column temperature, 26° C.; cooled in ice for only valine; mobile phase, HClO4 aqueous solution, pH 2.0; flow rate, 1 ml/min; and detection, 200 nm).

[4] = tested on: Hypomyces subiculosus IFO 6892 strain; assay: as above; assay type: cell-based; details: Hypomyces subiculosus IFO 6892 cells; 0.1% substrate, Tris-HCl pH 7.5, 30° C., 24 hours
Experimental: as §2, §3

[5] = tested on: Hypomyces mycophilus IFO 6785 strain; assay: as above; assay type: cell-based; details: Hypomyces mycophilus IFO 6785 cells; 0.1% substrate, Tris-HCl pH 7.5, 30° C., 24 hours
Experimental: as §2, §3

[6] = tested on: Hypomyces sepulcralis IFO 9102 strain; assay: as above; assay type: cell-based; details: Hypomyces sepulcralis IFO 9102 cells; 0.1% substrate, Tris-HCl pH 7.5, 30° C., 24 hours
Experimental: as §2, §3

[7] = tested on: Hypomyces rosellus IFO 6911 strain; assay: as above; assay type: cell-based; details: Hypomyces rosellus IFO 6911 cells; 0.1% substrate, Tris-HCl pH 7.5, 30° C., 24 hours
Experimental: as §2, §3

[8] = tested on: Hypomyces mycophilus ATCC 76474; assay: as above; assay type: cell-based; details: Hypomyces mycophilus ATCC 76474 cells; 0.1% substrate, Tris-HCl pH 7.5, 30° C., 24 hours
Experimental: as §2, §3

[9] = tested on: Hypomyces aurantius IFO 6847 strain; assay: as above; assay type: cell-based; details: Hypomyces aurantius IFO 6847 cells; 0.1% substrate, Tris-HCl pH 7.5, 30° C., 24 hours
Experimental: as §2, §3

[10] = tested on: Hypomyces broomeanus IFO 9164 strain; assay: as above; assay type: cell-based; details: Hypomyces broomeanus IFO 9164 cells; 0.1% substrate, Tris-HCl pH 7.5, 30° C., 24 hours
Experimental: as §2, §3

[11] = tested on: Fusarium solani IFO 9975 strain; assay: as above; assay type: cell-based; details: Fusarium solani IFO 9975 cells; 0.1% substrate, Tris-HCl pH 7.5, 30° C., 24 hours
Experimental: as §2, §3

[12] = tested on: Hypomyces chrysospermus IFO 6817 strain; assay: as above; assay type: cell-based; details: Hypomyces chrysospermus IFO 6817 cells; 0.1% substrate, Tris-HCl pH 7.5, 30° C., 24 hours
Experimental: as §2, §3

D-aminoacylase = assay: Substrate specificity of purified D-aminoacylase (TNBS method); assay type: biochemical, Hypomyces mycophilus IFO 6785
Experimental: The enzyme activity was assayed by determining the amount of amino acid produced using the TNBS method and the HPLC method. In the TMBS method, 100 mM Na2B4O7 (0.5 ml) was added to a sample solution containing amino acid (0.5 ml), 20 μl of 110 mM TNBS (trinitrobenzenesulfonic acid) was then added, and the resulting mixture was quickly stirred. After 5 min, 100 mM NaH2PO4 containing 1.5 mM Na2SO3 (2 ml) was added to the reaction mixture to terminate the color reaction, and the absorbance at 420 nm was measured. HPLC was performed by subjecting a sample solution containing amino acid to high-performance liquid chromatography using an ODS column (column, Wakosil II 5C18 (4.6 dia.×250 mm) (Wako Pure Chemical); eluent, CH3CN/50 mM KH2PO4. H3PO4 (pH 2.5)=2:8; detection, A280 nm; and flow rate, 1.0 ml/min). The retention times were 3.5 min for D-tryptophan and 9.8 min for N-acetyl-D-tryptophan. Using D-tryptophan as the assay standard, one unit (or U) of the enzyme was defined as the amount of the enzyme required to produce 1 μmol of D-tryptophan at 30° C. for 1 min.
Substrate specificity of the enzyme was expressed as the percentage of the specific activity compared with that for N-acetyl-D-methionine taken as 100%. N-chloroacetyl-D-phenylalanine, N-acetyl-D-valine, N-acetyl-D-phenylalanine, N-acetyl-D-tryptophan, N-acetyl-D-leucine, N-acetyl-L-valine, N-acetyl-L-phenylalanine, N-acetyl-L-tryptophan, and N-acetyl-L-leucine substrates were used for the comparison. The enzyme reaction was performed in 50 mM Tris-HCl (pH 7.5) containing 1 µl of the enzyme solution and 20 mM of each substrate (total volume 1.0 ml) at 30° C. for 20 min, and terminated by adding 0.5 ml of a TCA reaction terminating solution according to Tsai et al. (consisting of 110 mM trichloroacetic acid, 220 mM sodium acetate, and 330 mM acetic acid). The enzyme activity was assayed by the TNBS method as described in Example 4(2).

What does the source list for `CSCC[C@@H](NC(C)=O)C(=O)O` [N-acetyl-D-methionine]?
amount of D-amino acids produced from the corresponding N-acetyl-D-amino acids [1]: 0.89 mM; amount of D-amino acids produced from the corresponding N-acetyl-D-amino acids [2]: 0.90 mM; amount of D-amino acids produced from the corresponding N-acetyl-D-amino acids [3]: 2.45 mM; D-amino acid produced from N-acetyl-D-amino acid (Fusarium solani IFO 9974): 0.04 mg/mL; D-amino acid produced from N-acetyl-D-amino acid [4]: 0.03 mg/mL; D-amino acid produced from N-acetyl-D-amino acid [5]: 0.71 mg/mL; D-amino acid produced from N-acetyl-D-amino acid [6]: 0.24 mg/mL; D-amino acid produced from N-acetyl-D-amino acid [7]: 0.14 mg/mL; D-amino acid produced from N-acetyl-D-amino acid [8]: 0.10 mg/mL; D-amino acid produced from N-acetyl-D-amino acid [9]: 0.02 mg/mL; D-amino acid produced from N-acetyl-D-amino acid [10]: 0.01 mg/mL; D-amino acid produced from N-acetyl-D-amino acid [11]: 0.02 mg/mL; D-amino acid produced from N-acetyl-D-amino acid [12]: 0.12 mg/mL; percentage of the specific activity compared with that for N-acetyl-D-methionine taken as 100%, D-enantiomer (D-aminoacylase; 20 mM substrate, 50 mM Tris-HCl pH 7.5, 30° C., 20 min): 100%; activity of the enzyme for the substrate (in words) (D-aminoacylase; summary of Table 5): very active

From patent US6905861B2, “D-aminoacylases, method for producing the same, and method for producing D-amino acids using the same” (Daicel Chemical Industries, Ltd., priority 1998, dated 2005)
